{
  "source": "patent US12344600B2",
  "about": "“c-Myc mRNA translation modulators and uses thereof in the treatment of cancer” (Anima Biotech Inc., priority 2022, dated 2025)",
  "data": [
    {"system": "c-Myc", "assay": "c-Myc immunofluorescence assay", "type": "cell-based, human", "settings": "A549 cells, 24 hours, anti-c-Myc immunofluorescence", "description": "A549 human non-small cell lung carcinoma cells were treated for 24 hours with increasing compound concentration, cells were fixed and stained with a nuclei stain (DAPI) and anti-c-Myc fluorescent antibody. The c-Myc signal was quantified by image analysis, and data was exported and analyzed using TIBCO Spotfire® (TIBCO Corporation). Dose response curves were generated and fitted with logaristic regression to calculate potency (EC50 values). Potency values are presented in Table 2 for all compounds and are shown for selected compounds (FIG. 3).\nA549 cells were grown in 384-wells plates (Perkin Elmer, Cat. 6057300) for 48 hours, treated with compounds and then fixed for 20 min in 4% paraformaldehyde. After that permeabilization was done using 0.1% Triton X-100 in PBS for 20 min. Primary anti-c-Myc antibody (Abcam, ab32072) staining was performed for 90 min at room temperature. Cells then were washed twice with PBS and incubated with secondary antibody (Abcam, ab150075) for 90 min at room temperature. Nuclei were stained with DAPI for 10 min and washed twice with PBS.\nCell images were taken with Operetta (Perkin Elmer, USA), a wide-field fluorescence microscope at 20× magnification. After acquisition, the images were transferred to Columbus software (Perkin-Elmer) for image analysis. In Columbus, cells were identified by their nucleus, using the “Find Nuceli” module and cytoplasm was detected based on the secondary antibody channel. Subsequently, the fluorescent signal was enumerated in the identified cell region. Then data was exported to a data analysis and visualization software, Tibco Spotfire, USA.", "values": [
      {"smiles": "CN1CCC[C@H](CN2CC[C@@H](CNC(=O)C3CCN(c4nc(-c5ccc(Cl)cc5)no4)CC3)C2)C1", "note": "(single isomer, unassigned) [Compound 470]", "Myc Efficacy (−LogEC50)": "++ (++ ≥5 and <6)"},
      {"smiles": "CN1CCC[C@H](CN2CC[C@H](CNC(=O)C3CCN(c4nc(-c5ccc(Cl)cc5)no4)CC3)C2)C1", "note": "(single isomer, unassigned) [Compound 471]", "Myc Efficacy (−LogEC50)": "++ (++ ≥5 and <6)"},
      {"smiles": "COc1ccc(-c2noc(N3CCC(C(=O)NCCCN4CCCCC4)CC3)n2)cc1", "note": "[Compound 101, 1-(3-(4-methoxyphenyl)-1,2,4-oxadiazol-5-yl)-N-(3-(piperidin-1-yl)propyl)piperidine-4-carboxamide]", "Myc Efficacy (−LogEC50)": "+ (+ >3 and <5)"},
      {"smiles": "CCCCN(CC)CCCNC(=O)C1CCN(c2nc(-c3ccc(OC)cc3)no2)CC1", "note": "[Compound 102, N-(3-(butyl(ethyl)amino)propyl)-1-(3-(4-methoxyphenyl)-1,2,4-oxadiazol-5-yl)piperidine-4-carboxamide]", "Myc Efficacy (−LogEC50)": "+ (+ >3 and <5)"},
      {"smiles": "CCc1ccc(CNC(=O)C2CCN(c3nc(-c4ccc(Cl)cc4)no3)CC2)cc1", "note": "[Compound 103, 1-(3-(4-chlorophenyl)-1,2,4-oxadiazol-5-yl)-N-(4-ethylbenzyl)piperidine-4-carboxamide]", "Myc Efficacy (−LogEC50)": "+ (+ >3 and <5)"},
      {"smiles": "CCCN1CCN(C(=O)C2CCN(c3nc(-c4ccc(OC)cc4)no3)CC2)CC1", "note": "[Compound 104, (1-(3-(4-methoxyphenyl)-1,2,4-oxadiazol-5-yl)piperidin-4-yl)(4-propylpiperazin-1-yl)methanone]", "Myc Efficacy (−LogEC50)": "+ (+ >3 and <5)"},
      {"smiles": "COc1ccc(-c2noc(N3CCC(C(=O)NCC4CCN(Cc5ccc(C)cc5)C4)CC3)n2)cc1", "note": "(stereo not drawn) [Compound 105, 1-(3-(4-methoxyphenyl)-1,2,4-oxadiazol-5-yl)-N-((1-(4-methylbenzyl)pyrrolidin-3-yl)methyl)piperidine-4-carboxamide]", "Myc Efficacy (−LogEC50)": "++ (++ ≥5 and <6)"},
      {"smiles": "COc1ccc(-c2noc(N3CCC(C(=O)NC[C@H]4CCN(Cc5ccc(C)cc5)C4)CC3)n2)cc1", "note": "[Compound 106, (R)-1-(3-(4-methoxyphenyl)-1,2,4-oxadiazol-5-yl)-N-((1-(4-methylbenzyl)pyrrolidin-3-yl)methyl)piperidine-4-carboxamide]", "Myc Efficacy (−LogEC50)": "++ (++ ≥5 and <6)"},
      {"smiles": "COc1ccc(-c2noc(N3CCC(C(=O)NC[C@@H]4CCN(Cc5ccc(C)cc5)C4)CC3)n2)cc1", "note": "[Compound 107, (S)-1-(3-(4-methoxyphenyl)-1,2,4-oxadiazol-5-yl)-N-((1-(4-methylbenzyl)pyrrolidin-3-yl)methyl)piperidine-4-carboxamide]", "Myc Efficacy (−LogEC50)": "+ (+ >3 and <5)"},
      {"smiles": "COc1ccc(-c2noc(N3CCC(C(=O)N4CCCC4)CC3)n2)cc1", "note": "[Compound 109, (1-(3-(4-methoxyphenyl)-1,2,4-oxadiazol-5-yl)piperidin-4-yl)(pyrrolidin-1-yl)methanone]", "Myc Efficacy (−LogEC50)": "+ (+ >3 and <5)"},
      {"smiles": "COc1ccc(-c2noc(N3CCC(C(=O)N4CCC(C)CC4)CC3)n2)cc1", "note": "[Compound 110, (1-(3-(4-methoxyphenyl)-1,2,4-oxadiazol-5-yl)piperidin-4-yl)(4-methylpiperidin-1-yl)methanone]", "Myc Efficacy (−LogEC50)": "+ (+ >3 and <5)"},
      {"smiles": "COc1ccc(-c2noc(N3CCC(C(=O)NCCN(C)C)CC3)n2)cc1", "note": "[Compound 111, N-(2-(dimethylamino)ethyl)-1-(3-(4-methoxyphenyl)-1,2,4-oxadiazol-5-yl)piperidine-4-carboxamide]", "Myc Efficacy (−LogEC50)": "+ (+ >3 and <5)"},
      {"smiles": "COCCCNC(=O)C1CCN(c2nc(-c3ccc(OC)cc3)no2)CC1", "note": "[Compound 112, 1-(3-(4-methoxyphenyl)-1,2,4-oxadiazol-5-yl)-N-(3-methoxypropyl)piperidine-4-carboxamide]", "Myc Efficacy (−LogEC50)": "+ (+ >3 and <5)"},
      {"smiles": "CCN(CC)CCCNC(=O)C1CCN(c2nc(-c3ccc(OC)cc3)no2)CC1", "note": "[Compound 113, N-(3-(diethylamino)propyl)-1-(3-(4-methoxyphenyl)-1,2,4-oxadiazol-5-yl)piperidine-4-carboxamide]", "Myc Efficacy (−LogEC50)": "+ (+ >3 and <5)"},
      {"smiles": "CCN(CC)CCNC(=O)C1CCN(c2nc(-c3ccc(OC)cc3)no2)CC1", "note": "[Compound 114, N-(2-(diethylamino)ethyl)-1-(3-(4-methoxyphenyl)-1,2,4-oxadiazol-5-yl)piperidine-4-carboxamide]", "Myc Efficacy (−LogEC50)": "+ (+ >3 and <5)"},
      {"smiles": "COc1ccc(-c2noc(N3CCC(C(=O)NCc4ccccn4)CC3)n2)cc1", "note": "[Compound 115, 1-(3-(4-methoxyphenyl)-1,2,4-oxadiazol-5-yl)-N-(pyridin-2-ylmethyl)piperidine-4-carboxamide]", "Myc Efficacy (−LogEC50)": "− (− ≤3)"},
      {"smiles": "COc1ccc(-c2noc(N3CCC(C(=O)NCc4cccnc4)CC3)n2)cc1", "note": "[Compound 116, 1-(3-(4-methoxyphenyl)-1,2,4-oxadiazol-5-yl)-N-(pyridin-3-ylmethyl)piperidine-4-carboxamide]", "Myc Efficacy (−LogEC50)": "+ (+ >3 and <5)"},
      {"smiles": "COc1ccc(-c2noc(N3CCC(C(=O)NCCCN4CCN(C)CC4)CC3)n2)cc1", "note": "[Compound 117, 1-(3-(4-methoxyphenyl)-1,2,4-oxadiazol-5-yl)-N-(3-(4-methylpiperazin-1-yl)propyl)piperidine-4-carboxamide]", "Myc Efficacy (−LogEC50)": "+ (+ >3 and <5)"},
      {"smiles": "CCCCN(CC)CCNC(=O)C1CCN(c2nc(-c3ccc(OC)cc3)no2)CC1", "note": "[Compound 119, N-(2-(butyl(ethyl)amino)ethyl)-1-(3-(4-methoxyphenyl)-1,2,4-oxadiazol-5-yl)piperidine-4-carboxamide]", "Myc Efficacy (−LogEC50)": "+ (+ >3 and <5)"},
      {"smiles": "COc1ccc(-c2noc(N3CCC(C(=O)NCc4cccs4)CC3)n2)cc1", "note": "[Compound 120, 1-(3-(4-methoxyphenyl)-1,2,4-oxadiazol-5-yl)-N-(thiophen-2-ylmethyl)piperidine-4-carboxamide]", "Myc Efficacy (−LogEC50)": "+ (+ >3 and <5)"},
      {"smiles": "COc1ccc(-c2noc(N3CCC(C(=O)NCc4cccc(OC)c4)CC3)n2)cc1", "note": "[Compound 121, N-(3-methoxybenzyl)-1-(3-(4-methoxyphenyl)-1,2,4-oxadiazol-5-yl)piperidine-4-carboxamide]", "Myc Efficacy (−LogEC50)": "+ (+ >3 and <5)"},
      {"smiles": "COc1ccc(-c2noc(N3CCC(C(=O)NCc4cccc(Cl)c4)CC3)n2)cc1", "note": "[Compound 122, N-(3-chlorobenzyl)-1-(3-(4-methoxyphenyl)-1,2,4-oxadiazol-5-yl)piperidine-4-carboxamide]", "Myc Efficacy (−LogEC50)": "+ (+ >3 and <5)"},
      {"smiles": "COc1ccc(-c2noc(N3CCC(C(=O)NCc4ccc(Cl)cc4)CC3)n2)cc1", "note": "[Compound 123, N-(4-chlorobenzyl)-1-(3-(4-methoxyphenyl)-1,2,4-oxadiazol-5-yl)piperidine-4-carboxamide]", "Myc Efficacy (−LogEC50)": "+ (+ >3 and <5)"},
      {"smiles": "COc1ccc(-c2noc(N3CCC(C(=O)NCCCN4CCCC(C)C4)CC3)n2)cc1", "note": "(stereo not drawn) [Compound 124, 1-(3-(4-methoxyphenyl)-1,2,4-oxadiazol-5-yl)-N-(3-(3-methylpiperidin-1-yl)propyl)piperidine-4-carboxamide]", "Myc Efficacy (−LogEC50)": "+ (+ >3 and <5)"},
      {"smiles": "COc1ccc(-c2noc(NCCCN3CCC(Cc4ccccc4)CC3)n2)cc1", "note": "[Compound 125, N-(3-(4-benzylpiperidin-1-yl)propyl)-3-(4-methoxyphenyl)-1,2,4-oxadiazol-5-amine]", "Myc Efficacy (−LogEC50)": "+ (+ >3 and <5)"},
      {"smiles": "CCc1ccc(CNC(=O)C2CCN(c3nc(-c4ccc(OC)cc4)no3)CC2)cc1", "note": "[Compound 126, N-(4-ethylbenzyl)-1-(3-(4-methoxyphenyl)-1,2,4-oxadiazol-5-yl)piperidine-4-carboxamide]", "Myc Efficacy (−LogEC50)": "+ (+ >3 and <5)"},
      {"smiles": "CCCNC(=O)C1CCN(c2nc(-c3ccc(OC)cc3)no2)CC1", "note": "[Compound 127, 1-(3-(4-methoxyphenyl)-1,2,4-oxadiazol-5-yl)-N-propylpiperidine-4-carboxamide]", "Myc Efficacy (−LogEC50)": "+ (+ >3 and <5)"},
      {"smiles": "COc1ccc(-c2noc(N3CCC(C(=O)NCCc4ccccc4)CC3)n2)cc1", "note": "[Compound 128, 1-(3-(4-methoxyphenyl)-1,2,4-oxadiazol-5-yl)-N-phenethylpiperidine-4-carboxamide]", "Myc Efficacy (−LogEC50)": "+ (+ >3 and <5)"},
      {"smiles": "COc1ccc(-c2noc(N3CCC(C(=O)NCCCc4ccccc4)CC3)n2)cc1", "note": "[Compound 129, 1-(3-(4-methoxyphenyl)-1,2,4-oxadiazol-5-yl)-N-(3-phenylpropyl)piperidine-4-carboxamide]", "Myc Efficacy (−LogEC50)": "+ (+ >3 and <5)"},
      {"smiles": "COc1ccc(-c2noc(N3CCC(C(=O)NCCCN(C)c4ccccc4)CC3)n2)cc1", "note": "[Compound 130, 1-(3-(4-methoxyphenyl)-1,2,4-oxadiazol-5-yl)-N-(3-(methyl(phenyl)amino)propyl)piperidine-4-carboxamide]", "Myc Efficacy (−LogEC50)": "+ (+ >3 and <5)"},
      {"smiles": "O=C(C1CCN(c2nc(-c3ccccc3)no2)CC1)N1CCN(Cc2ccccc2)CC1", "note": "[Compound 131, (4-benzylpiperazin-1-yl)(1-(3-phenyl-1,2,4-oxadiazol-5-yl)piperidin-4-yl)methanone]", "Myc Efficacy (−LogEC50)": "+ (+ >3 and <5)"},
      {"smiles": "CC1CCCN(CCCNC(=O)C2CCN(c3nc(-c4ccc(Cl)cc4)no3)CC2)C1", "note": "(stereo not drawn) [Compound 132, 1-(3-(4-chlorophenyl)-1,2,4-oxadiazol-5-yl)-N-(3-(3-methylpiperidin-1-yl)propyl)piperidine-4-carboxamide]", "Myc Efficacy (−LogEC50)": "+ (+ >3 and <5)"},
      {"smiles": "COc1ccc(CNC(=O)C2CCN(c3nc(-c4ccc(C(C)C)cc4)no3)CC2)cc1", "note": "[Compound 133, 1-(3-(4-isopropylphenyl)-1,2,4-oxadiazol-5-yl)-N-(4-methoxybenzyl)piperidine-4-carboxamide]", "Myc Efficacy (−LogEC50)": "+ (+ >3 and <5)"}
    ]}
  ]
}
